Like-named read-outs stand apart in the source and are kept apart here.
How the values were obtained:
WT BCL-2 = target: T1, WT BCL-2 (Homo sapiens, UniProt P10415); experiment: AlphaScreen displacement binary binding assay, WT BCL-2
T1 construct: BCL-xL (aa 2-212) and BCL-2 (aa 1-207) transformed cells were grown in LB broth; made in house; host or cells: E. coli BL21 (DE3) codon plus
Description: To test the binary/ternary binding affinities of compounds to BCL-2/BCL-xL, AlphaScreen displacement binding assay was performed to test the capabilities of testing compounds to displace a Biotin-tagged Bim (Biotin-[…]) or Bad (Biotin-[…]) from BCL-2 or BCL-xL for BCL-2 and BCL-xL binding affinities, respectively. All reagents were diluted in assay buffer of 25 mM HEPES, pH 7.5, 150 mM NaCl, 0.1% BSA, and 0.005% tween 20 prior incubation. To a 96-well PCR plate (VWR, Cat. No. 82006-636) was added 10 μL Biotin-tagged Bim (15 nM for WT or 50 nM for mutants) or Bad (15 nM for WT or 50 nM for mutants), 10 μL series diluted compounds solution (2 or 3 or 4× dilution), and 10 μL self-made 6×His tagged BCL-2 WT or mutants (25 nM WT or 50 nM mutants) or 10 μL self-made BCL-xL WT and mutants (10 nM WT or 50 nM mutants). After incubating at room temperature for 30 min, 5 µL of 160 μg/mL of anti-6×His acceptor beads (PerkinElmer, Cat. No. AL128M) was added and the mixture was incubated at room temperature for 15 min. 5 µL of 160 μg/mL of streptavidin donor beads (PerkinElmer, 6760002) was then added under subdued light and the mixture was incubated at dark for 30 min before being transferred to two adjacent wells (17 µL each) of 384-well white OptiPlate (PerkinElmer, Cat. No. 6008280). The luminescence signal was detected on a Biotek’s Synergy Neo2 multimode plate reader installed with an AphaScreen filter cube. The Ki values of each compounds were calculated by fitting data into the “Binding-competitive, One site-Fit Ki” function in GraphPad Prism (9.2.0) based on concentrations of Biotin–peptide used and experimentally determined Kd values of each 6×His protein &&&and Biotin–Peptide pair.

BCL-2 = target: T2, BCL-2 (Homo sapiens, UniProt P10415); experiment: Immunoblot degradation of BCL-2 in Jurkat cells; type: cell-based; conditions: for DC50: 16 h treatment, immunoblot
T2 construct: endogenous in cells; host or cells: Jurkat (ATCC TIB-152)
Description: The data are presented as mean ± s.d. from three replicate cell cultures in a representative experiment for Jurkat cells. h Left, WH244 induces polyubiquitination of WT, K22R BCL-2 and to some extent K17R but not K17/22R BCL-2 in 293T cells. 293T cells were co-transfected as indicated with Flag-BCL−2 WT or mutants and HA-tagged ubiquitin (HA-Ub) plasmids. After 36 h, cells were pretreated with MG132 (10 µM) for 2 h and then treated with or without WH244 (1 μM) for 5 h. The Flag-tagged proteins were immunoprecipitated (IP) and immunoblotted with HA or Flag antibody. Right, The input blot for this assay. Data are a representative of two independent experiments. Source data are provided as Source Data file.
Cells were collected, washed once with ice-cold phosphate-buffered saline, pH 7.2 (PBS, cat. no. 20012027; Thermo Fisher Scientific) and lysed in RIPA lysis buffer (Cat. No. BP-115DG, Boston Bio Products, Ashland, MA, USA) supplemented with protease and phosphatase inhibitor cocktails (Cat. No. PPC1010, Sigma-Aldrich, St. Louis, MO, USA) through sonication. The samples were centrifuged at 15,000 × g for 5 min and the supernatants were transferred into a new tube. The protein concentration in the supernatants was determined using the Pierce BCA protein Assay kit (cat. no. 23225, Thermo Fisher Scientific). The protein concentration was normalized, and the samples were reduced in 4× Laemmli’s SDS-sample buffer (cat. no. BP-110R, Boston Bio Products) and denatured at 95 °C for 5 min. An equal amount of protein samples (20–40 μg per lane) were resolved using precast 4–20% Tris-glycine gels (Mini-PROTEAN TGX, cat. no. 456–1094, Bio-Rad), and resolved proteins were transferred onto 0.2-μm pore size polyvinylidene difluoride (PVDF) blotting membranes (cat. no. LC2002, Thermo Fisher Scientific) using mini trans-blot electrophoretic transfer cell (Bio-Rad). The membranes were blocked with non-fat dry milk (5% wt/vol) in 1×Tris- buffered saline-Tween-20 (TBST) for 1 h at room temperature, and were subsequently probed with primary antibodies at a pre-determined optimal concentration in non-fat dry milk (5% wt/vol in TBST) overnight at 4 °C. The membranes were washed three times (15 min each) in TBST and then incubated with horse radish peroxidase (HRP)-conjugated secondary antibodies for 1 h at room temperature. Following sufficient washing with TBST, the membranes were exposed with ECL Western Blotting Substrate (Bio-Rad), and the signal was detected using the ChemiDoc MP Imaging System (Bio-Rad) and quantified using the ImageJ (v1.53a) software from NIH. Antibodies were purchased from Cell Signaling Technologies (CST) and the dilutions are as follows: BCL-xL (Cat. No. 2762S, 1:1000) and BCL-2 (Cat. No. 2870S, 1:1000). β-actin antibody was purchased from MP Biomedicals (Cat. No. 8691001, 1:20,000).

[1] = mean ± s.d., n=3, read-out: Ki (nM, n=3), BCL-2 WT
[2] = response letter, Supplementary Fig. 11, read-out: Ki, binary complex with BCL-2

T2 sequence (P10415 whole entry): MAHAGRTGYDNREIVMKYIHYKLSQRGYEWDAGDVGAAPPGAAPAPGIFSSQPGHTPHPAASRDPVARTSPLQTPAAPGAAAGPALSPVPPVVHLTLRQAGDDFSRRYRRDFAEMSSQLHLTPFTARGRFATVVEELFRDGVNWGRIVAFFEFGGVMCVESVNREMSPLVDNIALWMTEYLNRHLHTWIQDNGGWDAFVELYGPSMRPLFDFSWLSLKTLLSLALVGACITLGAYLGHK
T1 sequence (P10415 1-207): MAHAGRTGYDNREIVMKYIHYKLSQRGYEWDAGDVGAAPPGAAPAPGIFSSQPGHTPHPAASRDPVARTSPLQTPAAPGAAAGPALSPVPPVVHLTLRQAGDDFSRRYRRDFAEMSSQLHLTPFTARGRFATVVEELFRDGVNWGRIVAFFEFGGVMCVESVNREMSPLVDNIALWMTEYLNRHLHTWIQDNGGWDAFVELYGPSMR

Compound	Kd (WT BCL-2; Supplementary Fig. 11) [nM]	Ki (WT BCL-2; [1]) [nM]	Ki (WT BCL-2; [2]) [nM]	DC50 (BCL-2; Jurkat cells) [nM]	Earliest time at which BCL-2 degradation is seen (BCL-2; 0.1 μM WH244, Jurkat cells) [h]	Time to nearly complete degradation of BCL-2 (BCL-2; 0.1 μM WH244, Jurkat cells) [h]	Time for BCL-2 level to recover to pretreatment level after removal of degrader (BCL-2; 0.1 μM WH244 for 16 h, then fresh medium, Jurkat cells) [h]	DC50 fold better than 753b (BCL-2) (BCL-2; Jurkat cells, 16 h) [fold]
Cc1ncsc1-c1ccc(C(C)NC(=O)C2CC(O)CN2C(=O)C(NC(=O)CCCCCCC(=O)N2CCN(CC3(C)CCC(c4ccc(Cl)cc4)=C(CN4CCN(c5ccc(C(=O)NS(=O)(=O)c6ccc(NC(CCN7CCOCC7)CSc7ccccc7)c(S(=O)(=O)C(F)(F)F)c6)cc5)CC4)C3)CC2)C(C)(C)C)cc1 (stereo not drawn) [753b]	~23.4	24.9 ± 5.4	23.4	50				
Cc1ncsc1-c1ccc([C@H](C)NC(=O)[C@@H]2C[C@@H](O)CN2C(=O)[C@@H](NC(=O)CN2CCN(CC(=O)N3CCN(C[C@]4(C)CCC(c5ccc(Cl)cc5)=C(CN5CCN(c6ccc(C(=O)NS(=O)(=O)c7ccc(N[C@H](CCN8C[C@@H]9C[C@H]8CO9)CSc8ccccc8)c(S(=O)(=O)C(F)(F)F)c7)cc6)CC5)C4)CC3)CC2)C(C)(C)C)cc1 [WH244]	~3.1	3.5 ± 0.5	3.1	7.4	1	6	24 to 48	~6.8

— paper PMC10979003, “Development and crystal structures of a potent second-generation dual degrader of BCL-2 and BCL-xL” (Nature Communications, 2024)
